Measurements as given in US7326721B2 (Hypnion, Inc., priority 2003, dated 2008).

Key:
adult male Wistar rats = assay: SCORE-2000 sleep-wakefulness, locomotor activity and body temperature monitoring; format: in vivo, rat
hERG = hERG (Homo sapiens, UniProt Q12809); settings: human, 10 µM, pH 7.4
M1 muscarinic receptor = target: T1, M1 muscarinic receptor (Homo sapiens, UniProt P11229); assay: Muscarinic M1 binding assay ([3H]-scopolamine, N-methyl chloride); set-up: purchased PerkinElmer, Inc., Wellesley, Mass; host or cells: CHO cells; settings: read-out: Ki M1
T1 sequence (P11229 1-460): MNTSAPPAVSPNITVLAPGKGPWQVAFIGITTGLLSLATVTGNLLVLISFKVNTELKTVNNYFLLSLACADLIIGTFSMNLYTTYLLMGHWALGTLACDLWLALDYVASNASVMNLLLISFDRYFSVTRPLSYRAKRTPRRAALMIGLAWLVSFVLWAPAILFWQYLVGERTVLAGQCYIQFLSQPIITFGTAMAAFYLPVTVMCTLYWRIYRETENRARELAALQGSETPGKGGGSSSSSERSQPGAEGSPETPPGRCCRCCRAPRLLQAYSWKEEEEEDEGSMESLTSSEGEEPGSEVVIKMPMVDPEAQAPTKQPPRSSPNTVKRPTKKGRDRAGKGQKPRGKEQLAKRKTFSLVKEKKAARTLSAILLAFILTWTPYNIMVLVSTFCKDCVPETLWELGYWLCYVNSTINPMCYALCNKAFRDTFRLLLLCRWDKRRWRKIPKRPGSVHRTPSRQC

H1 histamine receptor = target: T2, H1 histamine receptor (Bos taurus, UniProt P30546); assay: Histamine H1 competitive binding assay ([3H]pyrilamine); set-up: species or system bovine; settings: read-out: Ki H1
T2 construct: the receptors were obtained from bovine cerebellar membrane tissue; from tissue; host or cells: bovine cerebellar membranes
T2 sequence (P30546 whole entry): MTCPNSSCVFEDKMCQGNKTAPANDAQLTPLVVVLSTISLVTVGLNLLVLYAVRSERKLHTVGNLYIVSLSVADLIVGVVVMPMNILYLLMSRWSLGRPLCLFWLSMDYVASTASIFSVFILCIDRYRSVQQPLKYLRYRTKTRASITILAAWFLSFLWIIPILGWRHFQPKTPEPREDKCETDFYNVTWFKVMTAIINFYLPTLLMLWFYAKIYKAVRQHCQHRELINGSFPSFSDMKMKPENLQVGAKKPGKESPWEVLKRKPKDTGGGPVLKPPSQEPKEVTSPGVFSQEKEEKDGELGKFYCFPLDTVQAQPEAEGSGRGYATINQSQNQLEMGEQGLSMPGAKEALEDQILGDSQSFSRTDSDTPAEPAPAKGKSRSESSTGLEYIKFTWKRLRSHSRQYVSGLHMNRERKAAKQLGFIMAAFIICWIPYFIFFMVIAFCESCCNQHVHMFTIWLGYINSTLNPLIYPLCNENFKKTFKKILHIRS

M3 muscarinic receptor = M3 muscarinic receptor (Homo sapiens, UniProt P20309); assay: Muscarinic M3 binding assay; set-up: purchased PerkinElmer, Inc., Wellesley, Mass; host or cells: CHO cells; settings: read-out: Ki M3
Chain of M3 muscarinic receptor (P20309 whole entry): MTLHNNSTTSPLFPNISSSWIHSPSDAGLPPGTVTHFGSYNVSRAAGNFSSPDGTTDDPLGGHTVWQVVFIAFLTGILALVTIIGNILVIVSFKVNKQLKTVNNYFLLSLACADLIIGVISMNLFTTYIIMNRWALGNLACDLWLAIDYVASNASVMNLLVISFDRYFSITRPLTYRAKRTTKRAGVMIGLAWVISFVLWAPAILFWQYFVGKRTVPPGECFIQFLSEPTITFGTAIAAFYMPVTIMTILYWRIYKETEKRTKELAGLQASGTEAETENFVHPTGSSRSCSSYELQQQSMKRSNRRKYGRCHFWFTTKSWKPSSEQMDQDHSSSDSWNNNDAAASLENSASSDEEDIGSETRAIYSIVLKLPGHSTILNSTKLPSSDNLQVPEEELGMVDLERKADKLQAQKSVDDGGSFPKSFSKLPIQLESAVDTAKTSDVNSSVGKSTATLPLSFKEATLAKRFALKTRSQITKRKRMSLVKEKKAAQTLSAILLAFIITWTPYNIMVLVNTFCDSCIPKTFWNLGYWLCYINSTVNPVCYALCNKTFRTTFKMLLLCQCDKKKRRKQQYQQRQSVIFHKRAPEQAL

M2 muscarinic receptor = target: T3, M2 muscarinic receptor (Homo sapiens, UniProt P08172); assay: Muscarinic M2 binding assay; set-up: purchased PerkinElmer, Inc., Wellesley, Mass; host or cells: CHO cells; settings: read-out: Ki M2
T3 sequence (P08172 1-466): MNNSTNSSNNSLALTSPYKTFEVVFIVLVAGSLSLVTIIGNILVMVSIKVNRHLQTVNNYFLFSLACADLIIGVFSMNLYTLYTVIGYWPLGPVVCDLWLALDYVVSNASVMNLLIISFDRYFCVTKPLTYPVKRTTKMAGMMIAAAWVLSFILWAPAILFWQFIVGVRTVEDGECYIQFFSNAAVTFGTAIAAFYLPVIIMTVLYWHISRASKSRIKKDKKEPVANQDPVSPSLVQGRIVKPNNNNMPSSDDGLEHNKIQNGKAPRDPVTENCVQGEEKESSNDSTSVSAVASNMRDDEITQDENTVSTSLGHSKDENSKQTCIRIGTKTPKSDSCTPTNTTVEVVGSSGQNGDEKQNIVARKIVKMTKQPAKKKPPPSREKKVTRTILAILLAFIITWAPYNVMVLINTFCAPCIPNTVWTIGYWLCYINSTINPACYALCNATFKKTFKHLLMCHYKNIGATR

Chain of hERG (Q12809 whole entry): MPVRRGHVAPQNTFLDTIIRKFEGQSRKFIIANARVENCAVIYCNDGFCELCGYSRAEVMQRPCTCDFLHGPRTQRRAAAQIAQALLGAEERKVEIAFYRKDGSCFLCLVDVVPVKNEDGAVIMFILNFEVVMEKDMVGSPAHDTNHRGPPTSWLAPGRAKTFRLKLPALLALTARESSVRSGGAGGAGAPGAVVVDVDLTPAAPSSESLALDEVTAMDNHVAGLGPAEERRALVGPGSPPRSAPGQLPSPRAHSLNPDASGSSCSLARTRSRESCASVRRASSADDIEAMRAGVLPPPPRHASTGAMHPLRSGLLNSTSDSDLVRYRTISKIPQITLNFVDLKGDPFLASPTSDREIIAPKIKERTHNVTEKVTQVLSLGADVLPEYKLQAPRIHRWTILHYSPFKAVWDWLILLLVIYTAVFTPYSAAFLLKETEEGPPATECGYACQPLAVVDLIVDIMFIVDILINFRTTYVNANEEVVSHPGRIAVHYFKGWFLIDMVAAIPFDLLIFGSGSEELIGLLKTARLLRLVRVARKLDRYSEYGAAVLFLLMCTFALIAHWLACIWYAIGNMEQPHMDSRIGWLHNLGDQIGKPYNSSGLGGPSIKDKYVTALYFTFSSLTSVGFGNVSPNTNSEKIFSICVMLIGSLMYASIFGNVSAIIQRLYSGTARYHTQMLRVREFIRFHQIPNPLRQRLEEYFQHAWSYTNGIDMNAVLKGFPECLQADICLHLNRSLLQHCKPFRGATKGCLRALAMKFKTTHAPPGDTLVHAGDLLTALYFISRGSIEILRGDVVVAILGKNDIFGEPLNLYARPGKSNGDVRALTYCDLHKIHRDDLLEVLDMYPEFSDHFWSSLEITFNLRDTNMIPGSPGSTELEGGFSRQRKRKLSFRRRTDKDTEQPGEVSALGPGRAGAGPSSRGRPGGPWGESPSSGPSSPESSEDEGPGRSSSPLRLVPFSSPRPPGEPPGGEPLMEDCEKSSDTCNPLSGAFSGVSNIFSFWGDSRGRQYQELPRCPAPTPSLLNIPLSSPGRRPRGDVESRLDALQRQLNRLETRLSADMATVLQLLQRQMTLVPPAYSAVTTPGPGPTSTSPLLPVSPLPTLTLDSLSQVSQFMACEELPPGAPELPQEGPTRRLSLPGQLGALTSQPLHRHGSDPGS

| Compound | LUSB (adult male Wistar rats; dose 3 mg/kg oral at CT-18) [min] | NREM (adult male Wistar rats; dose 3 mg/kg oral at CT-18) [min] | LUSB (adult male Wistar rats; dose 10 mg/kg oral at CT-18) [min] | NREM (adult male Wistar rats; dose 10 mg/kg oral at CT-18) [min] | LUSB (adult male Wistar rats; dose 30 mg/kg oral at CT-18) [min] | NREM (adult male Wistar rats; dose 30 mg/kg oral at CT-18) [min] | hERG at micromolar (% blocking of the hERG channel) (hERG) [% @ 10] | Ki (M1 muscarinic receptor) [µM] | Ki (H1 histamine receptor) [µM] | Ki (M3 muscarinic receptor) [µM] | Ki (M2 muscarinic receptor) [µM] |
| --- | --- | --- | --- | --- | --- | --- | --- | --- | --- | --- | --- |
| O=C(O)C1(CN2CCC(=C3c4ccc(F)cc4COc4ccccc43)CC2)CC1 [Compound 49b] | 10.4 | 22.5 | 13.1 | 47.3 | 15.9 | 43.2 | 3.1 | > 10 | 0.0614 | > 10 | > 10 |
| COc1ccc2c(c1)COc1ccccc1C2=C1CCN(CC2(C(=O)O)CC2)CC1 [Compound 50b] | 6.9 | 10.7 | 8.1 | 24.2 | 14.3 | 51.9 | 27.1 | > 10 | 0.0698 | > 10 | > 10 |
| O=C(O)C1(CN2CCC(=C3c4ccc(Cl)cc4COc4ccccc43)CC2)CC1 [Compound 51b] | 8.4 | 34.7 | 8.3 | 45 | 128 | 60.4 | 23 | > 10 | 0.072 | > 10 | > 10 |
| CC(C)(CCN1CCC(=C2c3ccc(F)cc3COc3ccccc32)CC1)C(=O)O [Compound 61a] | 3.1 | 13.9 | 9.7 | 24 | 10.1 | 45.8 | 12.6 | > 10 | 0.182 | > 10 | > 10 |
| O=C(O)C1(CCN2CCC(=C3c4ccc(F)cc4COc4ccccc43)CC2)CC1 [Compound 61b] | 3.6 | 11.3 | 14.6 | 34.8 | 9.7 | 57.4 | 85.9 | 0.569 | 0.0122 | > 10 | 3.09 |
| COc1ccc2c(c1)COc1ccccc1C2=C1CCN(CCC(C)(C)C(=O)O)CC1 [Compound 62a] | – | – | 7.4 | 23.2 | 9.1 | 25.2 | 13.6 | > 10 | 0.128 | > 10 | > 10 |
